# Test results reported in patent US20090099158A1, “TETRAHYDROISOQUINOLINE COMPOUNDS AS MODULATORS OF THE HISTAMINE H3 RECEPTOR” (priority 2007, published 2009).
# Molecular target: T1, cloned human H3 receptors (Homo sapiens, UniProt Q9Y5N1)
# T1 construct: expressed in transfected cells; host or cells: SK-N-MC cells
# Test: H3 Receptor Binding (Human)
# Conditions: cloned human H3 receptors stably expressed in SK-N-MC cells; average of the results obtained
# Procedure: Binding of compounds to the cloned human H3 receptors, stably expressed in SK-N-MC cells, was performed as described by Barbier, A. J. et al. (Br. J. Pharmacol. 2004, 143(5), 649-661). Data for compounds tested in this assay are presented in Table 1 as an average of the results obtained.
# T1 sequence (Q9Y5N1 whole entry): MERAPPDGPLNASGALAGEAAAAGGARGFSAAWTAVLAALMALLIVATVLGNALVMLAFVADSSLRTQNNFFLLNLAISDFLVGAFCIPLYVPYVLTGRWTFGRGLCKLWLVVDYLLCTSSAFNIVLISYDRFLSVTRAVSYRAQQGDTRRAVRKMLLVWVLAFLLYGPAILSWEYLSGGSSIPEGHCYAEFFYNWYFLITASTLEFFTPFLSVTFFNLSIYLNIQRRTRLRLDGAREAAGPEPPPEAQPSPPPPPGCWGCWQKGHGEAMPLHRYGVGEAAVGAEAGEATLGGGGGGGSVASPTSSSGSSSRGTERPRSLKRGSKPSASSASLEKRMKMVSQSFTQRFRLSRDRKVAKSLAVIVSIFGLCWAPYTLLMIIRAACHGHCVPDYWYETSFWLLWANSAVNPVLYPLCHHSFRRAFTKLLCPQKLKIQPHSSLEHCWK
row,SMILES,Ki [nM]
1,"O=C(c1ccc2c(c1)CCN(S(=O)(=O)c1ccc(F)cc1)C2)N1CCN(C2CCC2)CC1 [Example 104, (4-Cyclobutyl-piperazin-1-yl)-[2-(4-fluoro-benzenesulfonyl)-1,2,3,4-tetrahydro-isoquinolin-6-yl]-methanone]",16
2,"O=C(c1ccc2c(c1)CCN(C(=O)c1ccc(Cl)c(Cl)c1)C2)N1CCN(C2CCC2)CC1 [Example 114, (4-Cyclobutyl-piperazin-1-yl)-[2-(3,4-dichloro-benzoyl)-1,2,3,4-tetrahydro-isoquinolin-6-yl]-methanone]",13
3,"O=C(c1ccc2c(c1)CCN(C(=O)c1ccsc1)C2)N1CCN(C2CCC2)CC1 [Example 115, (4-Cyclobutyl-piperazin-1-yl)-[2-(thiophene-3-carbonyl)-1,2,3,4-tetrahydro-isoquinolin-6-yl]-methanone]",11
4,"CN(C)c1cccc(C(=O)N2CCc3cc(C(=O)N4CCN(C5CCC5)CC4)ccc3C2)c1 [Example 116, [6-(4-Cyclobutyl-piperazine-1-carbonyl)-3,4-dihydro-1H-isoquinolin-2-yl]-(3-dimethylamino-phenyl)-methanone]",18
5,"O=C(c1ccc2c(c1)CCN(C(=O)c1ccc(Cl)cc1Cl)C2)N1CCN(C2CCC2)CC1 [Example 118, [6-(4-Cyclobutyl-piperazine-1-carbonyl)-3,4-dihydro-1H-isoquinolin-2-yl]-(2,4-dichloro-phenyl)-methanone]",8
6,"O=C(c1ccc2c(c1)CCN(C(=O)c1cccc(Cl)c1)C2)N1CCN(C2CCC2)CC1 [Example 119, (3-Chloro-phenyl)-[6-(4-cyclobutyl-piperazine-1-carbonyl)-3,4-dihydro-1H-isoquinolin-2-yl]-methanone]",11
7,"Cc1cccc(C(=O)N2CCc3cc(C(=O)N4CCN(C5CCC5)CC4)ccc3C2)c1 [Example 120, [6-(4-Cyclobutyl-piperazine-1-carbonyl)-3,4-dihydro-1H-isoquinolin-2-yl]-m-tolyl-methanone]",12
8,"O=C(c1ccc2c(c1)CCN(C(=O)c1cccc([N+](=O)[O-])c1)C2)N1CCN(C2CCC2)CC1 [Example 121, [6-(4-Cyclobutyl-piperazine-1-carbonyl)-3,4-dihydro-1H-isoquinolin-2-yl]-(3-nitro-phenyl)-methanone]",5
9,"O=C(c1ccc2c(c1)CCN(C(=O)c1ccc(F)c(O)c1)C2)N1CCN(C2CCC2)CC1 [Example 124, (4-Cyclobutyl-piperazin-1-yl)-[2-(4-fluoro-3-hydroxy-benzoyl)-1,2,34-tetrahydro-isoquinolin-6-yl]-methanone]",24
10,"O=C(c1ccc2c(c1)CCN(C(=O)c1ccc(F)cc1F)C2)N1CCN(C2CCC2)CC1 [Example 126, (4-Cyclobutyl-piperazin-1-yl)-[2-(2,4-difluoro-benzoyl)-1,2,3,4-tetrahydro-isoquinolin-6-yl]-methanone]",9
11,"Cc1ccc(C(=O)N2CCc3cc(C(=O)N4CCN(C5CCC5)CC4)ccc3C2)cc1F [Example 127, (4-Cyclobutyl-piperazin-1-yl)-[2-(3-fluoro-4-methyl-benzoyl)-1,2,3,4-tetrahydro-isoquinolin-6-yl]-methanone]",27
12,"O=C(c1ccc2c(c1)CCN(C(=O)c1ccc(F)c(Cl)c1)C2)N1CCN(C2CCC2)CC1 [Example 128, [2-(3-Chloro-4-fluoro-benzoyl)-1,2,3,4-tetrahydro-isoquinolin-6-yl]-(4-cyclobutyl-piperazin-1-yl)-methanone]",19
13,"O=C(Cc1ccccc1)N1CCc2cc(C(=O)N3CCN(C4CCC4)CC3)ccc2C1 [Example 129, 1-[6-(4-Cyclobutyl-piperazine-1-carbonyl)-3,4-dihydro-1H-isoquinolin-2-yl]-2-phenyl-ethanone]",18
14,"O=C(Cc1ccc(F)cc1)N1CCc2cc(C(=O)N3CCN(C4CCC4)CC3)ccc2C1 [Example 130, 1-[6-(4-Cyclobutyl-piperazine-1-carbonyl)-3,4-dihydro-1H-isoquinolin-2-yl]-2-(4-fluoro-phenyl)-ethanone]",10
15,"O=C(c1ccc2c(c1)CCN(C(=O)c1ccc(C3CCCCC3)cc1)C2)N1CCN(C2CCC2)CC1 [Example 132, (4-Cyclobutyl-piperazin-1-yl)-[2-(4-cyclohexyl-benzoyl)-1,2,3,4-tetrahydro-isoquinolin-6-yl]-methanone]",100
16,"O=C(c1ccc2c(c1)CCN(C(=O)C1CCCO1)C2)N1CCCN(C2CCC2)CC1 (stereo not shown) [Example 138, [6-(4-Cyclobutyl-[1,4]diazepane-1-carbonyl)-3,4-dihydro-1H-isoquinolin-2-yl]-(tetrahydro-furan-2-yl)-methanone]",1
17,"O=C(c1ccc2c(c1)CCN(C(=O)c1ccc(F)c(O)c1)C2)N1CCCN(C2CCC2)CC1 [Example 141, [6-(4-Cyclobutyl-[1,4]diazepane-1-carbonyl)-3,4-dihydro-1H-isoquinolin-2-yl]-(4-fluoro-3-hydroxy-phenyl)-methanone]",1
18,"O=C(c1ccc2c(c1)CCN(C(=O)c1ccc(Cl)cc1Cl)C2)N1CCCN(C2CCC2)CC1 [Example 143, [6-(4-Cyclobutyl-[1,4]diazepane-1-carbonyl)-3,4-dihydro-1H-isoquinolin-2-yl]-(2,4-dichloro-phenyl)-methanone]",1

# Results, then the compound that gave them:
row,Ki [nM],SMILES
1,16,"O=C(c1ccc2c(c1)CCN(C(=O)c1ccc(Cl)cc1)C2)N1CCN(C2CCC2)CC1 [Example 105, [2-(4-Chloro-benzoyl)-1,2,3,4-tetrahydro-isoquinolin-6-yl]-(4-cyclobutyl-piperazin-1-yl)-methanone]"
2,17,"CC(C)N1CCN(C(=O)c2ccc3c(c2)CCN(C(=O)c2ccsc2)C3)CC1 [Example 106, (4-Isopropyl-piperazin-1-yl)-[2-(thiophene-3-carbonyl)-1,2,34-tetrahydro-isoquinolin-6-yl]-methanone]"
3,34,"CC(C)N1CCN(C(=O)c2ccc3c(c2)CCN(C(=O)c2ccc(O)cc2)C3)CC1 [Example 107, [2-(4-Hydroxy-benzoyl)-1,2,3,4-tetrahydro-isoquinolin-6-yl]-(4-isopropyl-piperazin-1-yl)-methanone]"
4,28,"COc1ccc(C(=O)N2CCc3cc(C(=O)N4CCN(C(C)C)CC4)ccc3C2)cc1 [Example 108, (4-Isopropyl-piperazin-1-yl)-[2-(4-methoxy-benzoyl)-1,2,3,4-tetrahydro-isoquinolin-6-yl]-methanone]"
5,37,"Cc1ccc(C(=O)N2CCc3cc(C(=O)N4CCN(C(C)C)CC4)ccc3C2)cc1 [Example 109, (4-Isopropyl-piperazin-1-yl)-[2-(4-methyl-benzoyl)-1,2,3,4-tetrahydro-isoquinolin-6-yl]-methanone]"
6,47,"CC(C)N1CCN(C(=O)c2ccc3c(c2)CCN(C(=O)c2ccc(Cl)cc2)C3)CC1 [Example 110, [2-(4-Chloro-benzoyl)-1,2,3,4-tetrahydro-isoquinolin-6-yl]-(4-isopropyl-piperazin-1-yl)-methanone]"
7,24,"CC(C)N1CCN(C(=O)c2ccc3c(c2)CCN(C(=O)c2ccc(Cl)c(Cl)c2)C3)CC1 [Example 111, [2-(3,4-Dichloro-benzoyl)-1,2,3,4-tetrahydro-isoquinolin-6-yl]-(4-isopropyl-piperazin-1-yl)-methanone]"
8,20,"COc1ccc(C(=O)N2CCc3cc(C(=O)N4CCN(C5CCC5)CC4)ccc3C2)cc1 [Example 112, (4-Cyclobutyl-piperazin-1-yl)-[2-(4-methoxy-benzoyl)-1,2,3,4-tetrahydro-isoquinolin-6-yl]-methanone]"
9,22,"Cc1ccc(C(=O)N2CCc3cc(C(=O)N4CCN(C5CCC5)CC4)ccc3C2)cc1 [Example 113, (4-Cyclobutyl-piperazin-1-yl)-[2-(4-methyl-benzoyl)-1,2,3,4-tetrahydro-isoquinolin-6-yl]-methanone]"
10,13,"CN(C)c1ccc(C(=O)N2CCc3cc(C(=O)N4CCN(C5CCC5)CC4)ccc3C2)cc1 [Example 117, [6-(4-Cyclobutyl-piperazine-1-carbonyl)-3,4-dihydro-1H-isoquinolin-2-yl]-(4-dimethylamino-phenyl)-methanone]"
11,7,"O=C(c1ccc2c(c1)CCN(C(=O)c1ccc([N+](=O)[O-])cc1)C2)N1CCN(C2CCC2)CC1 [Example 122, [6-(4-Cyclobutyl-piperazine-1-carbonyl)-3,4-dihydro-1H-isoquinolin-2-yl]-(4-nitro-phenyl)-methanone]"
12,16,"O=C(c1ccc2c(c1)CCN(C(=O)c1ccc(O)cc1)C2)N1CCN(C2CCC2)CC1 [Example 123, [6-(4-Cyclobutyl-piperazine-1-carbonyl)-3,4-dihydro-1H-isoquinolin-2-yl]-(4-hydroxy-phenyl)-methanone]"
13,17,"O=C(c1ccc2c(c1)CCN(C(=O)c1ccc(F)cc1)C2)N1CCN(C2CCC2)CC1 [Example 125, (4-Cyclobutyl-piperazin-1-yl)-[2-(4-fluoro-benzoyl)-1,2,3,4-tetrahydro-isoquinolin-6-yl]-methanone]"
14,78,"CC(C)(C)c1ccc(C(=O)N2CCc3cc(C(=O)N4CCN(C5CCC5)CC4)ccc3C2)cc1 [Example 131, [2-(4-tert-Butyl-benzoyl)-1,2,3,4-tetrahydro-isoquinolin-6-yl]-(4-cyclobutyl-piperazin-1-yl)-methanone]"
15,1,"O=C(c1ccc2c(c1)CCN(C(=O)c1ccc(F)cc1)C2)N1CCCN(C2CCC2)CC1 [Example 134, [6-(4-Cyclobutyl-[1,4]diazepane-1-carbonyl)-3,4-dihydro-1H-isoquinolin-2-yl]-(4-fluoro-phenyl)-methanone]"
16,2,"CCCc1ccc(C(=O)N2CCc3cc(C(=O)N4CCCN(C5CCC5)CC4)ccc3C2)cc1 [Example 140, [6-(4-Cyclobutyl-[1,4]diazepane-1-carbonyl)-3,4-dihydro-1H-isoquinolin-2-yl]-(4-propyl-phenyl)-methanone]"
